# Test results as given in patent US8859021B2, “Skin appearance through gene manipulation” (Sytheon, priority 2007, dated 2014).
# Where two headings read alike, the source gives them in different places.
# Test system: EpiDerm tissues
# Conditions: retinol 10 μg/ml, Sytenol A 5 μg/ml, 2 days, vs 0.1% DMSO control
smiles,measurement,setting,value
"CC1=C(/C=C/C(C)=C/C=C/C(C)=C/CO)C(C)(C)CCC1 [Retinol, retinol]","Fold Change, JUP Catenin gamma (Junction plakoglobin) (Table 8)",,+2.43 fold
same,"Fold Change, JUP Catenin gamma (Table 9)",,+2.43 fold
same,"Fold Change, KIF1C Kinesin-like protein KIF1C",,+2.47 fold
same,"Fold Change, KIF2A Kinesin-like protein KIF2A",,−3.62 fold
same,"Fold Change, KIF4A Chromosome-associated kinesin KIF4A",,+2.08 fold
same,"Fold Change, KIF13A Kinsein-like protein KIF13A",,−2.27 fold
same,"Fold Change, KIF13B Kinsein-like protein KIF13B",,+2.91 fold
same,"Fold Change, KIF17 Kinesin-like protein KIF17",,+2.18 fold
same,"Fold Change, KIF26A Kinesin family member 26A",,−2.93 fold
same,"Fold Change, KIFC2 Kinesin-like protein KIFC2",,−2.45 fold
same,"Fold Change, KRT2 Keratin-2; Cytokeratin-2e (CK 2e)",,−8.37 fold
same,"Fold Change, KRT5 Keratin-5, Cytokeratin-5 (CK-5)",,+2.39 fold
same,"Fold Change, KRT7 Keratin-7; Cytokeratin-7 (CK-7)",,+8.75 fold
same,"Fold Change, KRT13 Keratin-13; Cytokeratin-13 (CK-13)",,+14.17 fold
same,"Fold Change, KRT15 Keratin-15; Cytokeratin-15 (CK-15)",,+5.48 fold
same,"Fold Change, KRT19 Keratin-19; Cytokeratin-19 (CK-19)",,+11.27 fold
same,"Fold Change, LAMA3 Laminin subunit alpha-3 precursor (Epiligrin 170 kDa subunit)",,+4.70 fold
same,"Fold Change, LAMC2 Laminin subunit gamma-2 precursor (Laminin B2t chain)",,+2.68 fold
same,"Fold Change, LRAT Lecithin retinol acyltransferase",,+12.3 fold
same,"Fold Change, LRRC49 Tubulin polyglutamylase complex subunit 4 (PGs4)",,−2.83 fold
same,"Fold Change, MC1R, TUBB3 Tubulin beta-3-chain (Tubulin beta-III)",,+2.99 fold
same,"Fold Change, MMP9 Matrix metalloprotease-9-precursor",,+8.35 fold
same,"Fold Change, MMP15 Matrix metalloprotease-15 precursor",,+3.67 fold
same,"Fold Change, MMP21 Matrix metalloprotease-21 precursor",,No effect
same,"Fold Change, MMP23A, MMP23B Matrix metalloprotease-23",,−5.78 fold
same,"Fold Change, MMP26 Matrix metalloprotease-26-precursor (MMP-26)",,+4.31 fold
same,"Fold Change, MMP28 Matrix metalloprotease-28-precursor",,+3.88 fold
same,"Fold Change, MYH14 Myosin-14",,+3.38 fold
same,"Fold Change, MYL2 Myosin regulatory light chain 2",,No effect
same,"Fold Change, MYO1F Myosin-lf (Myosin-le)",,+6.29 fold
same,"Fold Change, MYO6 Myosin-VI",,No effect
same,"Fold Change, Mast/stem cell growth factor receptor precursor (SCFR) (Proto-oncogene tyrosine-protein kinase kit (c-kit))",,−3.36 fold
same,"Fold Change, NDST4 N-heparan sulfate sulfotransferase 4",,No effect
same,"Fold Change, NEIL2 DNA glycosylase/AP lyase Neil2",,+12.79 fold
same,"Fold Change, NF-kappa-B-activating protein",,−2.13 fold
same,"Fold Change, NGRN, TTLL13 Tubulin tyrosine ligase-like family, member 13",,+11.61 fold
same,"Fold Change, NID2 Nidogen-2-precursor",,−17.36 fold
same,"Fold Change, NT5C1B, RDH14 Retinol dehydrogenase 14 (Alcohol dehydrogenase PAN20)",,−5.33 fold
same,"Fold Change, Nuclear factor Kappa B p105 unit (NF-kappa-B) (DNA-binding factor KBF 1)",,−3.62 fold
same,"Fold Change, PARP2 Poly (ADP-ribose) polymerase 2",,+2.08 fold
same,"Fold Change, PARP9 Poly (ADP-ribose) polymerase 9",,+5.92 fold
same,"Fold Change, PARP12 Poly (ADP-ribose) polymerase 12",,+4.69 fold
same,"Fold Change, PARP15 Poly (ADP-ribose) polymerase 15",,+6.37 fold
same,"Fold Change, PCDH11X Procadherin-11",,+3.18 fold
same,"Fold Change, PCDH18 Procadherin-18-precursor",,−2.49 fold
same,"Fold Change, PCDH19 Procadherin-19-precursor",,−3.41 fold
same,"Fold Change, PCDHB1 Procadherin-beta-1-precursor",,No effect
same,"Fold Change, PCDHB2 Procadherin-beta-2-precursor",,No effect
same,"Fold Change, PCDHB3 Procadherin-beta-3-precursor",,−6.57 fold
same,"Fold Change, PCDHB4 Procadherin-beta-4-precursor",,−2.62 fold
same,"Fold Change, PFN4 Profilin-4 (Profilin IV)",,+4.77 fold
same,"Fold Change, PI3 Elastase-specific inhibitor",,+2.45 fold
same,"Fold Change, Protein Kinase B (RAC-alpha serine/threonine-protein kinase) (RAC-PK-alpha)",,−5.09 fold
same,"Fold Change, RARB Retinoic acid receptor beta-1",,+5.63 fold
same,"Fold Change, RARG Retinoic acid receptor gama-1",,+1.87 fold
same,"Fold Change, RARRES1 Retinoic acid receptor responder protein 1",,+13.25 fold
same,"Fold Change, RBP1 Cellular Retinol-binding protein-I",,+2.6 fold
same,"Fold Change, RBP2 Cellular Retinol-binding protein-II",,No effect
same,"Fold Change, RBP7 Cellular retinoic acid-binding protein 4",,No effect
same,"Fold Change, RETSAT All-trans-retinol 13,14-reductase precursor",,−2.97 fold
same,"Fold Change, SELE E-selection precursor (Endothelial leukocyte adhesion molecule 1) (ELAM-1)",,−2.11 fold
same,"Fold Change, SERPINB1 Leukocyte elastase inhibitor",,+3.80 fold
same,"Fold Change, SIR2-like protein1/NAD-dependent deacetylase sirtuin-1 (hSIRT1)",,−1.89 fold
same,"Fold Change, SIR2-like protein2/NAD-dependent deacetylase sirtuin-2",,+1.52 fold
same,"Fold Change, SIR2-like protein7/NAD-dependent deacetylase sirtuin-7",,+1.58 fold
same,"Fold Change, SRRM1 Serine/arginine repetitive matrix protein 1 (SR-related nuclear matrix protein 160 kDa) (SRm160)",,+3.57 fold
same,"Fold Change, TBCEL Tubulin-specific chaperone cofactor E-like protein (EL)",,+2.20 fold
same,"Fold Change, TTBK1 Tau-tubulin kinase 1",,−7.99 fold
same,"Fold Change, TTLL1 Tubulin polyglutamylase complex subunit 3 (PGs3)",,+1.92 fold
same,"Fold Change, TUBB2B Tubulin beta-2B chain",,−2.56 fold
same,Laminins gene regulation (in words),,up-regulate
same,"Fold Change, ITGA7 Integrin alpha-7 precursor",listed as retinol,significant down-regulatory effect
same,"Fold Change, ITGB5 Integrin beta-5 precursor (Table 3)",listed as retinol,significant down-regulatory effect
same,"Fold Change, ITGBL1 Integrin beta-like 1",listed as retinol,significant down-regulatory effect
same,"Fold Change, NID2 Nidogen-2-precursor",listed as retinol,significant down-regulation
